Assay results: US8426427B2, “Fused heterocyclic derivative, pharmaceutical composition comprising the derivative, and use of the composition for medical purposes” (Kissei Pharmaceutical Co., Ltd., priority 2007, dated 2013)

Columns and labels:
[1] = biological target: T1, human GnRHR1 (Homo sapiens, UniProt P30968); experiment: Inhibitory effect for the change of calcium levels in GnRH-stimulated cells (hGnRHR1#1 HEK293 cells); assay type: cell-based; details: hGnRHR1#1 cells (HEK293 stably expressing human GnRHR1), 10 nM GnRH added, FLIPR calcium dye; read-out: IC50 (drug concentration at which 50% GnRH-stimulated intracellular calcium flux was inhibited)
T1 construct: expressed in transfected cells
T1 sequence (P30968 1-328): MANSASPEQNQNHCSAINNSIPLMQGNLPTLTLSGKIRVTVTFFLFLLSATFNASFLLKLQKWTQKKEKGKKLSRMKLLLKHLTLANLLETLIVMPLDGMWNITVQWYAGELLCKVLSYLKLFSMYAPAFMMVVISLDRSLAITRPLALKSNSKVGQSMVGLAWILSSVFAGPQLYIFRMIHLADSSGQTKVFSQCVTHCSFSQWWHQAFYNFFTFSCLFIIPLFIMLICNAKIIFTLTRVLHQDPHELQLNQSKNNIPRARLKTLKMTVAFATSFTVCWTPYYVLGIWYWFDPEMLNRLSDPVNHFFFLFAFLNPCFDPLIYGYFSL
Excerpt: 1) Cloning and Construction of the Vector Expressing Human GnRH Receptor1 (GnRHR1)
Using cDNA derived from human pituitary (BECTON DICKINSON) as a template, the DNA fragment coding 45 to 1115 by of human GnRHR1 (Accession No. L03380), which was reported by Kakar et al., was amplified by PCR method and inserted into the multi-cloning site of pcDNA3.1(+) (Invitrogen). The DNA sequence inserted was perfectly matched to the previously reported sequence.
2) Establishment of Cell Line Stably Expressing Human GnRH Receptor1 HEK293 Cells
The expression vector of human GnRHR1 gene, was digested by XhoI into a linear DNA. The linear DNA was transfected into HEK293 cells by means of lipofection (Lipofectamine2000: Invitrogen). Neomycin resistant cell lines were selected by culture in the medium containing G418 (Invitrogen) at 1 mg/mL, and then the change of calcium levels in GnRH-stimulated cells was measured by the method described below.
3) Assay of Inhibitory Effect for the Change of Calcium Levels in GnRH-Stimulated Cells
Antagonizing effect of compounds for human GnRHR1 was evaluated by depression of calcium levels in GnRH-stimulated cells. hGnRHR1#1 cells were seeded into a 96-well culture plate at a density of 1.5×10^5 cells/well and cultured for a day. […] Then, intracellular calcium levels were determined under the following condition by using FLEX STATION (Molecular Devices). […]

[2] = Assay for oral absorbability: plasma drug concentration after oral administration to rats; assay type: in vivo, SD rats; details: for C360 (plasma drug concentration at 360 minutes after administration) / Cmax: fasted male SD rats, oral 3 mg/kg, plasma; for availability by oral administration compared with Control compound 1 / sustainability of blood concentration 6 hours after oral administration compared with Control compound / Cmax: rat; for Cmax: LC-MS/MS, read-out: Cmax (maximum plasma drug concentration)
Experimental: Assay for Oral Absorbability
1) Preparation of the Samples for Measurement of the Drug Concentration after Oral Administration
As experimental animal, overnight fasted SD rats (Charles River, male, 7 weeks of age, 170-210 g) were used. Three mg of a test compound was dissolved by adding 0.2 mL of N,N-dimethylacetoamide, 9.794 mL of 0.5% aqueous methylcellulose solution and 0.006 mL of 2N NaOH, and then 0.3 mg/mL solution was prepared. The body weights of rats were measured, and the solution of the test compound was administered orally at the dose of 10 mL/kg (3 mg/kg). The oral administration was performed with gastric tube for rat and 2.5 mL syringe. The sampling times for collection of blood were 15, 30, 60, 120, 240 and 360 minutes after the oral administration. The blood was centrifuged, and the plasma was used as the sample for measurement of the drug concentration in blood.
2) Measurement of the Drug Concentration
To 0.025 mL of the plasma obtained in 1) described above, 0.1 mL of an adequate internal standard material was added according to the usual method, and then deproteinization was performed by adding 0.875 mL of acetonitrile. After centrifugation, 0.005 mL of the supernatant was injected into LC-MS/MS. The drug concentration in plasma was measured by LC-MS/MS method under the conditions as follows. To 0.05 mL of the blank plasma were added the internal standard material and various test compounds adequately according to the usual method, similar operating described above was done, and then the standard curves were prepared.
In the oral administration, the maximum plasma drug concentration (Cmax) and the plasma drug concentration at 360 minutes after administration (C360) are shown in Tables 8 and 9, respectively.

Row | IC50 [1] [nM] | C360 (plasma drug concentration at 360 minutes after administration) [2] [ng/mL] | Cmax [2] [ng/mL] | SMILES | availability by oral administration compared with Control compound 1 [2] | sustainability of blood concentration 6 hours after oral administration compared with Control compound [2]
1 | 133 | 2170 | 14900 | CN(Cc1c(F)cccc1F)c1ccc(F)c(-n2c(=O)[nH]c3csc(C(=O)O)c3c2=O)c1 [Example 2] | more excellent availability than the Control compound 1 | more superior in sustainability than the Control compound
2 | 51 | 1010 | 17600 | COCCOc1ccc(F)c(F)c1CN(C)c1ccc(F)c(-n2c(=O)[nH]c3csc(C(=O)O)c3c2=O)c1 [Example 1, 5-Carboxy-3-(2-fluoro-5-{N-[2,3-difluoro-6-(2-methoxyethoxy)benzyl]-N-methylamino}-phenyl)thieno[3,4-d]pyrimidine-2,4(1H,3H)-dione] | more excellent availability than the Control compound 1 | more superior in sustainability than the Control compound
